Results: patent publication US6956139B2, “(1R, 2S, 5R)-3-1-menthoxyalkan-1-OL cooling sensate” (Takasago International Corporation, priority 2000, dated 2005)

System: evaluators
Assay: Six evaluators swished a 150 ppm solution of each compound; flavor quality and cooling reported at intervals after spitting out
Format: in vivo, human
Conditions: for quality of the flavor and cooling characteristics, 30 Minutes: 10 ml of 150 ppm solution swished 15 seconds and spit out, 30 minutes after spitting out; for Peak cool at (time) / cooling lasting (duration): 10 ml of 150 ppm solution swished 15 seconds, time after spitting out
Protocol: The enantiomeric compounds of the present invention, Examples 1 through 3 (E1, E2 and E3), were tested against the prior art racemic mixture of 2-(5-methyl-2-(methylethyl)-cyclohexyloxy)-ethan-1-ol (C1). Six evaluators swished 10 ml of a 150 ppm solution of each compound for 15 seconds and spit out. The quality of the flavor and cooling characteristics were reported at various intervals after spitting out.

SMILES | quality of the flavor and cooling characteristics, 30 Minutes | Peak cool at (time) [min] | cooling lasting (duration)
CC(C)[C@@H]1CC[C@@H](C)C[C@H]1OCCCCO [Example E3, [1′R,2′S,5′R]-4-(5′-methyl-2′-(methylethyl)cyclohexyloxy)butan-1-ol] | cooling | 7 | 
CC(C)[C@@H]1CC[C@@H](C)C[C@H]1OCCCO [Example E2, [1′R,2′S,5′R]-3-(5′-methyl-2′-(methylethyl)cyclohexyloxy)propan-1-ol] |  | 10 to 13 | cooling 30+ min.
CC(C)[C@@H]1CC[C@@H](C)C[C@H]1OCCO [Example E1, [1′R,2′S,5′R]-2-(5′-methyl-2′-(methylethyl)cyclohexyloxy)ethan-1-ol] | cooling | 15 | 
CC1CCC(C(C)C)C(OCCO)C1 (centres unmarked) [Example C1, (d,l)-2-(5′-methyl-2′-(methylethyl)cyclohexyloxy)ethan-1-ol, reference compound] | no cooling |  | 10 to 15 min
